From ChEMBL document CHEMBL5649168, “Discovery of a selective catalytic p300/CBP inhibitor that targets lineage-specific tumours” (Nature, 2017)
The source made the active and inactive calls. The rule behind the calls is not given here.

Legend:
[1] = molecular target: Epithelial discoidin domain-containing receptor 1 (Homo sapiens, UniProt Q08345); experiment: Inhibition of DDR1 (unknown origin)
MAO-B = MAO-B (Homo sapiens, UniProt P27338); experiment: Inhibition of human recombinant MAO-B at 10 uM by radioligand binding assay relative to control
MAO-B, sequence (P27338 whole entry): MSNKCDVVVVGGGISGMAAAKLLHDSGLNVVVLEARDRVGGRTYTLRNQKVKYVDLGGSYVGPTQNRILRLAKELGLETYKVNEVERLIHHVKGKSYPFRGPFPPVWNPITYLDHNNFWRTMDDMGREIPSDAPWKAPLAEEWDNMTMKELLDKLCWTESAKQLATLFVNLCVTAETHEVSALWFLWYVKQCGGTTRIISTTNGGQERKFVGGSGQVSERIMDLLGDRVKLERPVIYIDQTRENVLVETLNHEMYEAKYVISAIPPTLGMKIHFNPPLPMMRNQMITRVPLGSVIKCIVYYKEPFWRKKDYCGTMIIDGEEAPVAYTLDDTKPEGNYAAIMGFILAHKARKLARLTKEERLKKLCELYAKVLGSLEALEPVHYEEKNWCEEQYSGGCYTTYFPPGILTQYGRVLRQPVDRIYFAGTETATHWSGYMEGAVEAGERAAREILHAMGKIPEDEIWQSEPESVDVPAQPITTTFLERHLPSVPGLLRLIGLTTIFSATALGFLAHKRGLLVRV

[2] = molecular target: Insulin-like growth factor 1 receptor (Homo sapiens, UniProt P08069); experiment: Inhibition of IGF1R (unknown origin)
[3] = Tmax in CB17 SCID mouse xenografted with LuCaP-77 CR cell at 50 mg/kg, ip administered for 7 days; type: ADME, organism-based; conditions: in vivo, time 7 day
Farage = experiment: Antiproliferative activity against human Farage cells assessed as inhibition of cell viability incubated for 3 to 5 days by Celltiter-Glo luminescent assay; type: functional, cell-based
NCI-H838 = experiment: Antiproliferative activity against human NCI-H838 cells assessed as inhibition of cell viability incubated for 3 to 5 days by Celltiter-Glo luminescent assay; type: functional, cell-based
CREB-binding protein = CREB-binding protein (Homo sapiens, UniProt Q92793); experiment: Inhibition of CBP in human 22Rv1 cells at 3 uM incubated for 24 hrs by Western blotting analysis; type: cell-based
SU-DHL-8 = experiment: Antiproliferative activity against human SU-DHL-8 cells assessed as inhibition of cell viability incubated for 3 to 5 days by Celltiter-Glo luminescent assay; type: functional, cell-based
[4] = molecular target: Dual specificity mitogen-activated protein kinase kinase 2 (Homo sapiens, UniProt P36507); experiment: Inhibition of MEK2 (unknown origin)
Dual specificity mitogen-activated protein kinase kinase 2, sequence (P36507 whole entry): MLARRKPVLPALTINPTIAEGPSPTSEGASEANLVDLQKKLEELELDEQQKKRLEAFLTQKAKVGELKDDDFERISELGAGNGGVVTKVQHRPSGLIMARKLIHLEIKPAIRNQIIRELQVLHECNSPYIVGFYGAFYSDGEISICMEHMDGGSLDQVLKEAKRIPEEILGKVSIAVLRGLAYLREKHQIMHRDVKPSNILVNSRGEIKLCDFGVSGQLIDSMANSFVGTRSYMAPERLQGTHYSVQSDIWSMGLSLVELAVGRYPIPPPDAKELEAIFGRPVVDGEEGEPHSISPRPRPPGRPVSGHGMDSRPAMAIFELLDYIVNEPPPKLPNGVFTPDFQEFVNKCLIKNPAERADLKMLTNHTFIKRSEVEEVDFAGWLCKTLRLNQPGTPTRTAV

NCI-H23 = experiment: Antiproliferative activity against human NCI-H23 cells assessed as inhibition of cell viability incubated for 3 to 5 days by Celltiter-Glo luminescent assay; type: functional, cell-based
Hs 695T = experiment: Antiproliferative activity against human Hs 695T cells assessed as inhibition of cell viability incubated for 3 to 5 days by Celltiter-Glo luminescent assay; type: functional, cell-based
MDA-MB-231 = experiment: Antiproliferative activity against human MDA-MB-231 cells assessed as inhibition of cell viability incubated for 3 to 5 days by Celltiter-Glo luminescent assay; type: functional, cell-based
Raji = experiment: Antiproliferative activity against human Raji cells assessed as inhibition of cell viability incubated for 3 to 5 days by Celltiter-Glo luminescent assay; type: functional, cell-based
[5] = molecular target: Serine/threonine-protein kinase PLK3 (Homo sapiens, UniProt Q9H4B4); experiment: Inhibition of Plk3 (unknown origin)
[6] = molecular target: Tyrosine-protein kinase BTK (Homo sapiens, UniProt Q06187); experiment: Inhibition of BTK (unknown origin)
Tyrosine-protein kinase BTK, sequence (Q06187 whole entry): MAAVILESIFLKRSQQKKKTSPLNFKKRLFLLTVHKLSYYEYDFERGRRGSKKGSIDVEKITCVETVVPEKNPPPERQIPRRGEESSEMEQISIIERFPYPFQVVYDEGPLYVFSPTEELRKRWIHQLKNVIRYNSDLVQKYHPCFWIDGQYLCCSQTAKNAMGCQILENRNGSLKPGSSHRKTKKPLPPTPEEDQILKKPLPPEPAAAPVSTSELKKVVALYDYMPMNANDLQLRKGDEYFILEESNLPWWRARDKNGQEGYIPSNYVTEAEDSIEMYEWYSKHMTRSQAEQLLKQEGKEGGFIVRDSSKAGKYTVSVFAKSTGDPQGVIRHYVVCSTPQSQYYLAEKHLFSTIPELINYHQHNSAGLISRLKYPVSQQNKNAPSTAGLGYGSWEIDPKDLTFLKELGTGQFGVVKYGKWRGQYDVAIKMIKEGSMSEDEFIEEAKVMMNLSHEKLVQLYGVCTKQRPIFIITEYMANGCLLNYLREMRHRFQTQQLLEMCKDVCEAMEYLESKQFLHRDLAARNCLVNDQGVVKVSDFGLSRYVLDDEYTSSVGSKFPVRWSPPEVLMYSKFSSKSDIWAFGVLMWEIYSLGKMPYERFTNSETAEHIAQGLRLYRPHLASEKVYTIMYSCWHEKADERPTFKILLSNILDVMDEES

OCI-AML2 = experiment: Antiproliferative activity against human OCI-AML2 cells assessed as inhibition of cell viability incubated for 3 to 5 days by Celltiter-Glo luminescent assay; type: functional, cell-based
NCI-H441 = experiment: Antiproliferative activity against human NCI-H441 cells assessed as inhibition of cell viability incubated for 3 to 5 days by Celltiter-Glo luminescent assay; type: functional, cell-based
Kasumi 1 = experiment: cells; conditions: Homo sapiens
DU-4475 = experiment: Antiproliferative activity against human DU-4475 cells assessed as inhibition of cell viability incubated for 3 to 5 days by Celltiter-Glo luminescent assay; type: functional, cell-based
NCI-H187 = experiment: Antiproliferative activity against human NCI-H187 cells assessed as inhibition of cell viability incubated for 3 to 5 days by Celltiter-Glo luminescent assay; type: functional, cell-based
EOL1 = experiment: Antiproliferative activity against human EOL-1 cells assessed as inhibition of cell viability incubated for 3 to 5 days by Celltiter-Glo luminescent assay; type: functional, cell-based
CHL-1 = experiment: Antiproliferative activity against human CHL-1 cells assessed as inhibition of cell viability incubated for 3 to 5 days by Celltiter-Glo luminescent assay; type: functional, cell-based
KMS-11 = experiment: Antiproliferative activity against human KMS-11 cells assessed as inhibition of cell viability incubated for 3 to 5 days by Celltiter-Glo luminescent assay; type: functional, cell-based
Insulin receptor = Insulin receptor (Homo sapiens, UniProt P06213); experiment: Inhibition of InsR (unknown origin)
[7] = molecular target: Vascular endothelial growth factor receptor 2 (Homo sapiens, UniProt P35968); experiment: Inhibition of Kdr (unknown origin)
Vascular endothelial growth factor receptor 2, sequence (P35968 whole entry): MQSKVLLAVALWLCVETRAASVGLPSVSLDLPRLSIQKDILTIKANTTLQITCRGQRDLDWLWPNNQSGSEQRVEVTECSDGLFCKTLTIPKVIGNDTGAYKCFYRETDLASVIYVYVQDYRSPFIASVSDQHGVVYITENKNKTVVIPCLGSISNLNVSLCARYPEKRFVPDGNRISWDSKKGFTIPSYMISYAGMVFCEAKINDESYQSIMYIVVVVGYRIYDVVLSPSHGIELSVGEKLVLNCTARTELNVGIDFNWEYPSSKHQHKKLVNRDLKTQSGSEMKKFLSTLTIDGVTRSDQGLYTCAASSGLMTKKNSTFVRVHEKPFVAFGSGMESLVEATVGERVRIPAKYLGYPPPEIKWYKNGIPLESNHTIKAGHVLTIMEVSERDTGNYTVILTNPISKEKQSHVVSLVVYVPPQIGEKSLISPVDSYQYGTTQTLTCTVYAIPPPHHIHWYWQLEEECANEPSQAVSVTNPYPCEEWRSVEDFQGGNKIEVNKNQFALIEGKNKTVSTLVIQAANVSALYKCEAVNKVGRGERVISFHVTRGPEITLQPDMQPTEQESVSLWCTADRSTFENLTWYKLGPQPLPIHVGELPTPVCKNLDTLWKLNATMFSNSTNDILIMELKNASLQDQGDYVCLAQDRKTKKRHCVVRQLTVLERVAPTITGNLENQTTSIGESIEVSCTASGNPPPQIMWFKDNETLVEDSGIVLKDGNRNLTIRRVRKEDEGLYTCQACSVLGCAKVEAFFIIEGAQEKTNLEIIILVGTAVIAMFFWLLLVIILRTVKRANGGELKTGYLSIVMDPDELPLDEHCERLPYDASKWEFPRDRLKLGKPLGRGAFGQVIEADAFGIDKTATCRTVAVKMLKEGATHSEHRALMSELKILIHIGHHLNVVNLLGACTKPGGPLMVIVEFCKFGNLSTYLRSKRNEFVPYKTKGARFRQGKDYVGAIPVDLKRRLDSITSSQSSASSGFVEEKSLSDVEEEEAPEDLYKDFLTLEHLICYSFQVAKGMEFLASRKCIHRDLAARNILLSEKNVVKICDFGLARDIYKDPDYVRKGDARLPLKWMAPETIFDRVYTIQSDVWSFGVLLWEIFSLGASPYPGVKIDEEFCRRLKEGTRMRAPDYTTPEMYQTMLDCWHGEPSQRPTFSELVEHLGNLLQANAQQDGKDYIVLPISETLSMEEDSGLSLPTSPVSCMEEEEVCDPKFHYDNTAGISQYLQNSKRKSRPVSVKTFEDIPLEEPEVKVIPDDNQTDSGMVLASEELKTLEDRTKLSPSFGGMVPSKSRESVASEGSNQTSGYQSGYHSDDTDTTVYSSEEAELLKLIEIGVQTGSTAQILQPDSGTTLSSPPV

[8] = molecular target: Macrophage colony-stimulating factor 1 receptor (Homo sapiens, UniProt P07333); experiment: Inhibition of CSF1R (unknown origin)
Aurora kinase A = Aurora kinase A (Homo sapiens, UniProt O14965); experiment: Inhibition of Aurora2 (unknown origin)
Aurora kinase A, sequence (O14965 whole entry): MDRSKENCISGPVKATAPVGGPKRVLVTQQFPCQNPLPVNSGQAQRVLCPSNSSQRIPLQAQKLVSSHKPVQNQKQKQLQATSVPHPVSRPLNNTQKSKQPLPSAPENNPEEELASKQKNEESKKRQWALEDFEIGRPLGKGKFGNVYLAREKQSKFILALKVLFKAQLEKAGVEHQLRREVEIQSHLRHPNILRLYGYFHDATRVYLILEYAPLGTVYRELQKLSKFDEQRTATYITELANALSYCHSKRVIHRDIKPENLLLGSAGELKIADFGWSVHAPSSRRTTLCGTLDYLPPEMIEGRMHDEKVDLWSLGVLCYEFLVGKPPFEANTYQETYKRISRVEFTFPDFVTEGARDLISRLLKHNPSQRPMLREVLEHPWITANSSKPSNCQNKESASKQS

[9] = molecular target: Mitogen-activated protein kinase 1 (Homo sapiens, UniProt P28482); experiment: Inhibition of Erk2 (unknown origin)
[10] = molecular target: Mitogen-activated protein kinase 8 (Homo sapiens, UniProt P45983); experiment: Inhibition of JNK1 (unknown origin)
NCI-H727 = experiment: Antiproliferative activity against human NCI-H727 cells assessed as inhibition of cell viability incubated for 3 to 5 days by Celltiter-Glo luminescent assay; type: functional, cell-based
AMO1 = experiment: Antiproliferative activity against human AMO1 cells assessed as inhibition of cell viability incubated for 3 to 5 days by Celltiter-Glo luminescent assay; type: functional, cell-based
[11] = molecular target: Serine/threonine-protein kinase pim-1 (Homo sapiens, UniProt P11309); experiment: Inhibition of Pim1 (unknown origin)
Serine/threonine-protein kinase pim-1, sequence (P11309 whole entry): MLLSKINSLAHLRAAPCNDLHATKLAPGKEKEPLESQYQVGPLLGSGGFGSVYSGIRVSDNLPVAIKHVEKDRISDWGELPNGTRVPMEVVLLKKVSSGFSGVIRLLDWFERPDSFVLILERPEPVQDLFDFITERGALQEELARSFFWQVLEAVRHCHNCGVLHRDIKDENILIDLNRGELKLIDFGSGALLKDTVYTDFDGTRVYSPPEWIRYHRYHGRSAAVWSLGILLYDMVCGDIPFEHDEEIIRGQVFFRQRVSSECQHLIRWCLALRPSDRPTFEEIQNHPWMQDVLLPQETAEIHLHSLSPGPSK

Karpas-1106P = experiment: Antiproliferative activity against human KARPAS-1106P cells assessed as inhibition of cell viability incubated for 3 to 5 days by Celltiter-Glo luminescent assay; type: functional, cell-based
SUD4 = experiment: Antiproliferative activity against human SU-DHL-4 cells assessed as inhibition of cell viability incubated for 3 to 5 days by Celltiter-Glo luminescent assay; type: functional, cell-based
NCI-H146 = experiment: Antiproliferative activity against human NCI-H146 cells assessed as inhibition of cell viability incubated for 3 to 5 days by Celltiter-Glo luminescent assay; type: functional, cell-based
HCC1806 = experiment: Antiproliferative activity against human HCC1806 cells assessed as inhibition of cell viability incubated for 3 to 5 days by Celltiter-Glo luminescent assay; type: functional, cell-based
HT-144 = experiment: Antiproliferative activity against human HT-144 cells assessed as inhibition of cell viability incubated for 3 to 5 days by Celltiter-Glo luminescent assay; type: functional, cell-based
[12] = molecular target: cGMP-dependent protein kinase 1 (Homo sapiens, UniProt Q13976); experiment: Inhibition of PKG1alpha (unknown origin)
cGMP-dependent protein kinase 1, sequence (Q13976 whole entry): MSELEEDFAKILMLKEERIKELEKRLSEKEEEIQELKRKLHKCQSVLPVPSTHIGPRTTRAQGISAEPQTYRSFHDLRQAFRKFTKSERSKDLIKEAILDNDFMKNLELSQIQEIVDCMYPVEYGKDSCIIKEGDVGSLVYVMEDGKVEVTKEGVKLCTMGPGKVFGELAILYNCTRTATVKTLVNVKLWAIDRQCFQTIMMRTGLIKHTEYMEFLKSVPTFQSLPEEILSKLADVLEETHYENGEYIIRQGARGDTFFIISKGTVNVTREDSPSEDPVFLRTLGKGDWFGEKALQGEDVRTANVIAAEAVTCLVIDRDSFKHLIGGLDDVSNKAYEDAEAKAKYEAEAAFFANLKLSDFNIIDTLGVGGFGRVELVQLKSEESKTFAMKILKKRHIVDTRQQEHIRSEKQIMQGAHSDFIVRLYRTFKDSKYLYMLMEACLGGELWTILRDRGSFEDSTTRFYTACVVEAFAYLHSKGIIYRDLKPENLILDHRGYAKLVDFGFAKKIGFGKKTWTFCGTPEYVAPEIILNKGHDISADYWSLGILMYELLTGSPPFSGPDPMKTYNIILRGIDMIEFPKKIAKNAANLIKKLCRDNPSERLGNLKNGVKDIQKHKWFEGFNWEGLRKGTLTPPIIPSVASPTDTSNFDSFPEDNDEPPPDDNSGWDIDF

[13] = molecular target: Dual specificity mitogen-activated protein kinase kinase 3 (Homo sapiens, UniProt P46734); experiment: Inhibition of MAP2K3 (unknown origin)
Dual specificity mitogen-activated protein kinase kinase 3, sequence (P46734 whole entry): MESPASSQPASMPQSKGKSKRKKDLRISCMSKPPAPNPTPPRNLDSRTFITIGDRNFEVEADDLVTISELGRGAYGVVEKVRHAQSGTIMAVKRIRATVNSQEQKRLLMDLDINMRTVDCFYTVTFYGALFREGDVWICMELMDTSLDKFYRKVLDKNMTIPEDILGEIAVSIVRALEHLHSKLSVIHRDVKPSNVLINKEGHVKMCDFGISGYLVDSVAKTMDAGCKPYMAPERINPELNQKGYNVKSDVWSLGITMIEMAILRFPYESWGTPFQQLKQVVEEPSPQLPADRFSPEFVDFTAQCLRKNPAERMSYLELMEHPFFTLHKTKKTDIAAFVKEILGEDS

[14] = AUC in CB17 SCID mouse xenografted with LuCaP-77 CR cell at 100 mg/kg, ip administered for 7 days; type: ADME, organism-based; conditions: in vivo, time 7 day
OPM-2 = experiment: Antiproliferative activity against human OPM-2 cells assessed as inhibition of cell viability incubated for 3 to 5 days by Celltiter-Glo luminescent assay; type: functional, cell-based
[15] = molecular target: Casein kinase I isoform alpha (Homo sapiens, UniProt P48729); experiment: Inhibition of Ck1alpha1 (unknown origin)
Casein kinase I isoform alpha, sequence (P48729 whole entry, canonical isoform): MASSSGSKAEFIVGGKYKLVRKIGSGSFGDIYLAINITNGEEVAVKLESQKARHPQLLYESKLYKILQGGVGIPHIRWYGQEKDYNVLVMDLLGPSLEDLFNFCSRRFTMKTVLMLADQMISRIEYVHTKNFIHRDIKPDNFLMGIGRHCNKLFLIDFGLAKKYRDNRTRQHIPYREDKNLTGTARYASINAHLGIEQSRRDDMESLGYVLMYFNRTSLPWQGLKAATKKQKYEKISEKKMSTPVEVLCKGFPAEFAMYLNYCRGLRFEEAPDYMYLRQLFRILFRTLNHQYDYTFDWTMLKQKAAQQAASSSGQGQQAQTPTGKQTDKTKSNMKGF

Ramos = experiment: Antiproliferative activity against human Ramos cells assessed as inhibition of cell viability incubated for 3 to 5 days by Celltiter-Glo luminescent assay; type: functional, cell-based
A-375 = experiment: Antiproliferative activity against human A-375 cells assessed as inhibition of cell viability incubated for 3 to 5 days by Celltiter-Glo luminescent assay; type: functional, cell-based

CNC(=O)Nc1ccc2c(c1)CC[C@@]21OC(=O)N(CC(=O)N(Cc2ccc(F)cc2)[C@@H](C)C(F)(F)F)C1=O [A-485]
IC50 [1]: > 10 µM | inhibition at 10 µM (MAO-B): -20% | IC50 [2]: > 10 µM | Tmax [3]: 3 h | EC50 (Farage): > 10 µM | EC50 (NCI-H838): 6.99 µM | inhibition (CREB-binding protein): inactive | EC50 (SU-DHL-8): 0.54 µM | IC50 [4]: > 10 µM | EC50 (NCI-H23): 1.79 µM | EC50 (Hs 695T): 3.57 µM | EC50 (MDA-MB-231): > 10 µM | EC50 (Raji): 0.46 µM | IC50 [5]: 2.69 µM | IC50 [6]: > 10 µM | EC50 (OCI-AML2): 2.03 µM | EC50 (NCI-H441): > 10 µM | EC50 (Kasumi 1): 0.29 µM | EC50 (DU-4475): 0.67 µM | EC50 (NCI-H187): > 10 µM | EC50 (EOL1): > 10 µM | EC50 (CHL-1): 0.37 µM | EC50 (KMS-11): 0.24 µM | IC50 (Insulin receptor): > 10 µM | IC50 [7]: > 10 µM | IC50 [8]: > 10 µM | IC50 (Aurora kinase A): > 10 µM | IC50 [9]: > 10 µM | IC50 [10]: > 10 µM | EC50 (NCI-H727): 6.63 µM | EC50 (AMO1): 1.09 µM | IC50 [11]: > 10 µM | EC50 (Karpas-1106P): 0.41 µM | EC50 (SUD4): 0.72 µM | EC50 (NCI-H146): 0.4 µM | EC50 (HCC1806): 2.95 µM | EC50 (HT-144): 3.08 µM | IC50 [12]: > 10 µM | IC50 [13]: > 10 µM | AUC at 168 h [14]: 417 µg·h/mL | EC50 (OPM-2): 0.62 µM | IC50 [15]: > 10 µM | EC50 (Ramos): 0.93 µM | EC50 (A-375): > 10 µM
